For 40 compounds, IC50 and melting point results are on record in patent US6407104B1, “Pyrrolo[1,2-a]pyrazine spla2 inhibitor” (Shionogi & Co., Ltd., priority 1998, dated 2002).

In data set [1] the target is T1, recombinant human secretory phospholipase A2 (Homo sapiens, UniProt P14555).
T1 sequence (P14555 21-144): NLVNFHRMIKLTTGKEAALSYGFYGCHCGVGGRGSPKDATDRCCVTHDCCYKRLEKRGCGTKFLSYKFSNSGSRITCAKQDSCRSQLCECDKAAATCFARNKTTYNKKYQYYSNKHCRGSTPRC
Kind of data set: Inhibition Test of Human Secretory Phospholipase A2 (chromogenic assay). The following applies: sPLA2 50 ng/well, 40° C., 30 minutes, OD 405 nm, 96 well microtiterplate. In kind it is biochemical. From the text:
Test Example: Inhibition Test of Human Secretory Phospholipase A2
In order to identify and evaluate an inhibitor of recombinant human secretory phospholipase A2, the following chromogenic assay is utilized. The assay herein has been applied for high volume screening wherein 96 well microtiterplate is used. A general explanation for such assay is described in “Analysis of Human Synovial Fluid Phospholipase A2 on Short Chain Phosphatidylcholine-Mixed Micelles: Development of a Spectrophotometric Assay Suitable for a Micortiterplate Reader” (Analytical Biochemistry, 204, pp 190-197, 1992 by Laure. J. Reynolds. Lori L. Hughes and Edward A. Dennis: the disclosure of which is incorporated herein for reference.
pH 7.5 (adjusted with NaOH)
pH 4.5 (adjusted with acetic acid)
1 mg of sPLA2 is dissolved in 1 ml of an enzyme buffer. Thereafter, the solution is maintained at 4° C.
In the assay, 5 μl of the solution is diluted with 1995 μl of the reaction buffer to be used.
198 mg of 5,5′-dithiobis-2-[…] (manufactured by Wako Pure Chemicals) is dissolved in 100 ml of H2O
H 7.5 (adjusted with NaOH)
100 mg of racemic 1,2-bis(heptanoylthio)-1,2-dideoxy-sn-glycero-3-phospholylcholine is dissolved in 1 ml of chloroform.
624.9 mg of Triton-X 100 is dissolved in the reaction buffer.
Enzyme Reaction: for 1 Plate of Microtiterplate
1) 0.106 ml of the substrate solution is put in a centrifugal tube, and nitrogen gas is jetted to remove the solvent. 0.54 ml of Triton-X 100 is added thereto, the mixture is stirred, thereafter it is sonified in a bath type sonification to dissolve. To the resulting product are added 17.8 ml of the reaction buffer and 0.46 ml of DTNB, and 0.18 ml each of the admixture is poured to wells of the 96 well microtiterplate.
2) 10 μl of a test compound (or solvent blank) are added in accordance with alignment of plates which has been previously set.
3) Incubation is effected at 40° C. for 15 minutes.
4) 20μl of an enzyme solution (sPLA2) which has been previously diluted (50 ng/well) are added to start reaction (40° C., 30 minutes).
5) Changes in absorbancy for 30 minutes are measured by a plate reader, and inhibition activity was calculated (OD: 405 nm).
6) IC50 was determined by plotting log concentration with respect to inhibition values within 10% to 90% inhibiting range.

Each structure is given as a SMILES string. pIC50: −log10 of the molar value.

In general, pIC50 refers to the negative decadic logarithm of the IC50, by convention in mol/L. Broadly, the melting point is the temperature of the solid-liquid transition.

As for `CCc1c(C(=O)C(N)=O)c2c(OCC(=O)O)nc(C)cn2c1Cc1ccccc1Cc1ccccc1` [Compound I-28], the melting point lay within 180.5 to 182.5 °C. Besides, in data set [1], the pIC50 was 8.15.

`CCc1c(C(=O)C(N)=O)c2c(OCC(=O)OC)nc(C)cn2c1Cc1ccccc1-c1ccc(F)cc1` [Compound I-29]: the melting point is 147 to 149 °C. The pIC50 in data set [1] is 7.25.

With `CCc1c(C(=O)C(N)=O)c2c(OCC(=O)O)nc(C)cn2c1Cc1ccccc1-c1ccc(F)cc1` [Compound I-30], the melting point was 175 to 177 °C. Further, the pIC50 in data set [1] was 8.10.

Compound `CCc1c(C(=O)C(N)=O)c2c(OCC(=O)OC)nc(C)cn2c1Cc1ccc(F)cc1F` [Compound I-31] yielded a melting point of 161 to 163 °C. The pIC50 in data set [1] is 5.93.

In the case of `CCc1c(C(=O)C(N)=O)c2c(OCC(=O)O)nc(C)cn2c1Cc1ccc(F)cc1F` [Compound I-32], the melting point lay in the range of 208 to 210 °C. Also, the negative logarithm of the IC50 (pIC50) in data set [1] is 7.55.

`CCc1c(C(=O)C(N)=O)c2c(OCC(=O)OC)nc(C)cn2c1Cc1ccc(OC)cc1` [Compound I-33] displayed a melting point of 189 to 190 °C. For the same compound, the negative logarithm of the IC50 (pIC50) in data set [1] is 6.15.

Compound `CCc1c(C(=O)C(N)=O)c2c(OCC(=O)O)nc(C)cn2c1Cc1ccc(OC)cc1` [Compound I-34] showed a melting point of 200 to 201.5 °C. Moreover, the negative-log IC50 (pIC50) in data set [1] is 7.59.

With `CCc1c(C(=O)C(N)=O)c2c(OCC(=O)OC)nc(C)cn2c1Cc1cccc(F)c1` [Compound I-35], the melting point was in the range of 179.5 to 181 °C. Further, in data set [1], the pIC50 was 6.74.

For `CCc1c(C(=O)C(N)=O)c2c(OCC(=O)O)nc(C)cn2c1Cc1cccc(F)c1` [Compound I-36], the melting point was in the range of 190.5 to 193 °C. For the same compound, the pIC50 in data set [1] was 7.96.

For `CCc1c(C(=O)C(N)=O)c2c(OCC(=O)OC)nc(CO)cn2c1Cc1ccccc1` [Compound I-37], the melting point lay within 201 to 202 °C. Also, the pIC50 in data set [1] was 6.14.

In turn, `CCc1c(C(=O)C(N)=O)c2c(OCC(=O)O)nc(CO)cn2c1Cc1ccccc1` [Compound I-38] came in with a melting point of 211 to 212 °C. The pIC50 in data set [1] is 7.48.

With `CCc1c(C(=O)C(N)=O)c2c(OCC(=O)OC)nc(C(C)C)cn2c1Cc1ccccc1` [Compound I-39], the melting point lay in the range of 190 to 191 °C. Further, the pIC50 in data set [1] is 6.82.

`CCc1c(C(=O)C(N)=O)c2c(OCC(=O)O)nc(C(C)C)cn2c1Cc1ccccc1` [Compound I-40] returned a melting point of 211 to 213 °C. For the same compound, the negative logarithm of the IC50 (pIC50) in data set [1] is 7.92.

Compound `CCc1cn2c(Cc3ccccc3)c(CC)c(C(=O)C(N)=O)c2c(OCC(=O)OC)n1` [Compound I-41] came in with a melting point of 154 to 156 °C. Also, the negative logarithm of the IC50 (pIC50) in data set [1] is 6.97.

`CCc1cn2c(Cc3ccccc3)c(CC)c(C(=O)C(N)=O)c2c(OCC(=O)O)n1` [Compound I-42] returned a melting point of 197 to 198 °C. The negative logarithm of the IC50 (pIC50) in data set [1] was 8.00.

Take `CCc1c(C(=O)C(N)=O)c2c(OCC(=O)OC)nc(-c3ccccc3)cn2c1Cc1ccccc1` [Compound I-43]: the melting point fell in the range of 203 to 205 °C. Further, the pIC50 in data set [1] is 7.39.

On to `CCc1c(C(=O)C(N)=O)c2c(OCC(=O)O)nc(-c3ccccc3)cn2c1Cc1ccccc1` [Compound I-44], for which the melting point lay in the range of 233 to 234 °C. Moreover, in data set [1], the pIC50 was 8.15.

In turn, `CCc1c(C(=O)C(N)=O)c2c(OCC(=O)OC)nc(CC(C)C)cn2c1Cc1ccccc1` [Compound I-45] came in with a melting point of 129 to 130 °C. In addition, the pIC50 in data set [1] is 6.93.

As to `CCc1c(C(=O)C(N)=O)c2c(OCC(=O)O)nc(CC(C)C)cn2c1Cc1ccccc1` [Compound I-46], the melting point is 216 to 217 °C. Further, in data set [1], the pIC50 was 8.00.

On to `CCc1c(C(=O)C(N)=O)c2c(OCC(=O)OC)nc(Cc3ccccc3)cn2c1Cc1ccccc1` [Compound I-49], for which the melting point fell in the range of 178 to 180 °C. For the same compound, the negative-log IC50 (pIC50) in data set [1] was 6.68.

On to `CCc1c(C(=O)C(N)=O)c2c(OCC(=O)O)nc(Cc3ccccc3)cn2c1Cc1ccccc1` [Compound I-50], for which the melting point lay within 200 to 202 °C. The pIC50 in data set [1] was 7.77.

Regarding `CCc1c(C(=O)C(N)=O)c2c(OCC(=O)OC)nc(C)cn2c1Cc1ccccc1-c1cccs1` [Compound I-51], the melting point lay within 134.5 to 136 °C. The pIC50 in data set [1] was 7.21.

For `CCc1c(C(=O)C(N)=O)c2c(OCC(=O)OC)nc(C)cn2c1Cc1ccccc1C#Cc1ccccc1` [Compound I-53], the melting point was 147 to 149 °C. In addition, in data set [1], the pIC50 is 7.23.

Take `CCc1c(C(=O)C(N)=O)c2c(OCC(=O)OC)nc(C)cn2c1Cc1ccccc1Oc1ccccc1` [Compound I-55]: the melting point is 161 to 163 °C. Moreover, in data set [1], the negative-log IC50 (pIC50) is 7.49.

With `CCc1c(C(=O)C(N)=O)c2c(OCC(=O)O)nc(C)cn2c1Cc1ccccc1Oc1ccccc1` [Compound I-56, [7-Ethyl-3-methyl-8-oxamoyl-6-(2-phenyloxybenzyl)pyrrolo [1,2-a]pyrazin-1-yl]oxyacetic acid], the melting point lay within 208 to 210 °C. The pIC50 in data set [1] is 8.22.

Compound `CCc1c(C(=O)C(N)=O)c2c(OCC(=O)OC)nc(C)cn2c1Cc1cccc(-c2ccc(C)s2)c1` [Compound I-63] gave a melting point of 179.5 to 181 °C. The pIC50 in data set [1] was 7.24.

With `CCc1c(C(=O)C(N)=O)c2c(OCC(=O)O)nc(C)cn2c1Cc1cccc(-c2ccc(C)s2)c1` [Compound I-64], the melting point lay in the range of 190.5 to 193 °C. Besides, in data set [1], the negative logarithm of the IC50 (pIC50) was 8.22.

In turn, `CCc1c(C(=O)C(N)=O)c2c(OCC(=O)OC)nc(C)cn2c1Cc1ccccc1-c1ccc(C)cc1` [Compound I-69] gave a melting point of 167.5 to 169.5 °C. In addition, the pIC50 in data set [1] was 7.48.

`CCc1c(C(=O)C(N)=O)c2c(OCC(=O)O)nc(C)cn2c1Cc1ccccc1-c1ccc(C)cc1` [Compound I-70]: the melting point is 179.5 to 181.5 °C. Further, the pIC50 in data set [1] is 8.30.

As for `CCc1c(C(=O)C(N)=O)c2c(OCC(=O)OC)nc(C)cn2c1Cc1ccccc1C(=O)c1ccccc1` [Compound I-71], the melting point lay within 190 to 192 °C. In data set [1], the negative-log IC50 (pIC50) was 6.05.

`CCc1c(C(=O)C(N)=O)c2c(OCC(=O)O)nc(C)cn2c1Cc1ccccc1C(=O)c1ccccc1` [Compound I-72] came in with a melting point of 131 to 133 °C. The pIC50 in data set [1] was 7.89.

For the compound `CCc1c(C(=O)C(N)=O)c2c(OCC(=O)OC)nc(C)cn2c1Cc1ccccc1CCc1ccccc1` [Compound I-73], the melting point lay in the range of 215 to 217 °C. Besides, in data set [1], the pIC50 is 6.89.

As to `CCc1c(C(=O)C(N)=O)c2c(OCC(=O)O)nc(C)cn2c1Cc1ccccc1CCc1ccccc1` [Compound I-74], the melting point was 189 to 191 °C. In addition, the negative logarithm of the IC50 (pIC50) in data set [1] was 8.22.

`COC(=O)COc1nc(C)cn2c(Cc3ccccc3)c(C3CC3)c(C(=O)C(N)=O)c12` [Compound I-75] had a melting point of 210 to 211.5 °C. In data set [1], the pIC50 was 5.84.

With `Cc1cn2c(Cc3ccccc3)c(C3CC3)c(C(=O)C(N)=O)c2c(OCC(=O)O)n1` [Compound I-76], the melting point was in the range of 194.5 to 196 °C. For the same compound, in data set [1], the pIC50 is 7.54.

In turn, `COC(=O)COc1nc(C)cn2c(Cc3ccc(F)cc3)c(C3CC3)c(C(=O)C(N)=O)c12` [Compound I-77] showed a melting point of 179 to 182.5 °C. Moreover, the pIC50 in data set [1] is 5.86.

With `Cc1cn2c(Cc3ccc(F)cc3)c(C3CC3)c(C(=O)C(N)=O)c2c(OCC(=O)O)n1` [Compound I-78], the melting point lay in the range of 185 to 187 °C. Moreover, the pIC50 in data set [1] is 7.22.

Regarding `CCc1c(C(=O)C(N)=O)c2c(OCC(=O)OC)nc(C3CCCCC3)cn2c1Cc1ccccc1` [Compound I-79], the melting point was 193 to 194 °C. Besides, in data set [1], the pIC50 was 7.21.

Take `CCc1c(C(=O)C(N)=O)c2c(OCC(=O)O)nc(C3CCCCC3)cn2c1Cc1ccccc1` [Compound I-80]: the melting point lay in the range of 227 to 230 °C. Moreover, in data set [1], the pIC50 is 8.22.

Consider `CCc1c(C(=O)C(N)=O)c2c(OCC(=O)OC)nc(C3CCCCC3)cn2c1Cc1ccccc1-c1ccccc1` [Compound I-81], for which the melting point is 161.5 to 162.5 °C. The pIC50 in data set [1] was 6.70.
